row,SMILES,melting point
1,CCOC(=O)c1ncn2c1CN=C(c1ccccc1)c1cc(Cl)ccc1-2,174 to 175 °C
2,CNC1=Nc2ccc(Br)cc2C(c2ccccc2)=NC1,234 to 235 °C
3,CNC1=Nc2ccc(C#C[Si](C)(C)C)cc2C(c2ccccc2)=NC1,210 to 211 °C
4,C[Si](C)(C)C#Cc1ccc2c(c1)C(c1ccccn1)=NCC(=O)N2,242 to 243 °C
5,CN1C(=O)CN=C(c2ccccn2)c2cc(C#C[Si](C)(C)C)ccc21,194 to 195 °C
6,C#Cc1ccc2c(c1)C(c1ccccn1)=NCC(=O)N2C,190 to 191 °C
7,CCOC(=O)c1ncn2c1CN=C(c1ccccn1)c1cc(C#C[Si](C)(C)C)ccc1-2,205 to 206 °C
8,CC(C)(C)OC(=O)c1ncn2c1CN=C(c1ccccc1)c1cc(Br)ccc1-2,222 to 223 °C

# — patent US20100261711A1, “SELECTIVE ANTICONVULSANT AGENTS AND THEIR USES” (WiSys Technology Foundation, priority 2009, published 2010)
